Test results: publication doi:10.1101/2024.11.06.622220v2 (biorxiv, 2024)
Like-named read-outs stand apart in the source and are kept apart here.

How the values were obtained:
JaPTAL [1] = assay: PAL activity kinetics, Michaelis-Menten; format: biochemical, Joinvillea ascendens; details: only the range for graminid PTALs is in the text
JaPTAL [2] = details: read-out: apparent Km; also printed as 11.0 μM

Km (JaPTAL [1]) [µM] | SMILES | Km (JaPTAL [2]) [µM]
65.6 ± 1.4 | N[C@@H](Cc1ccccc1)C(=O)O [Phe] | –
– | N[C@@H](Cc1ccc(O)cc1)C(=O)O [Tyr] | 10.9
